The values below come from patent US7223758B2, “Pyridazine derivative, pharmaceutical composition thereof, its pharmaceutical use, and process for its preparation” (Sanofi-Aventis, priority 2002, dated 2007).

The assay addresses T1, cathepsin K (Homo sapiens, UniProt P43235).
T1 sequence (P43235 115-329): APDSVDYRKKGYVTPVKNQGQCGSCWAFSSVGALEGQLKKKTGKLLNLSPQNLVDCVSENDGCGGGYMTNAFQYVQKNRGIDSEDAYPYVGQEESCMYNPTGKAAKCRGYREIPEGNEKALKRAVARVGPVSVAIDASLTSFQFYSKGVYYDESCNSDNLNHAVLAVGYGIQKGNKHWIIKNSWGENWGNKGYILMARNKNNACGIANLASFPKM
The assay can be described thus: Study of the inhibition of cathepsin K (fluorogenic substrate Z-Val-Arg-AMC). It counts as biochemical. The following applies: cathepsin K 5 ng/ml, substrate Z-Val-Arg-AMC 20 μM, pH 5.5, two hours at room temperature; concentration range from 50 to 0.5 μM. As for the experimental part: Pharmacological study of the products of the invention Study of the inhibition of cathepsin K
The test products (10 mM) are diluted to 1 mM in DMSO and distributed in polystyrene Nunc 96-well plates at a rate of 2 μl per well. Column 12 of the plate is reserved for the controls and thus receives […] of DMSO (without products) per well. The plates are stored at −80° C. and thawed on the day of the experiment.
The products are diluted to 50 μM by addition of 38 μl of reaction buffer: 100 mM sodium acetate, 5 mM EDTA, 1 mM DTT, pH 5.5. The addition and all the pipetting are performed with a 96-tip CybiWell pipette. After mixing the solutions, each product is transferred into 2 wells (duplicates) of a black Greiner 384-well plate at a rate of 10 μl per well. Two 96-well plates can thus be tested in one 384-well plate.
A solution of substrate, Z-Val-Arg-AMC (Calbiochem), at a concentration of 50 μm is prepared in the reaction buffer. The substrate is the distributed among all the wells of the 384-well plate (20 μl per well).
A solution of cathepsin K at a concentration of 12.5 ng/ml is prepared in the reaction buffer and distributed among all the wells of the 384-well plate (20 μl per well) except for the 16 wells serving as 100% inhibition controls (columns 23 and 24, lines I to P), which receive 20 μl of enzyme-free buffer. […] are performed in columns 23 and 24, lines A to H, which contain no products.
The plates are then incubated for two hours at room temperature, and then read on a Fluoroskan (Labsystems): excitation 390 nm; emission 460 nm.
The final concentrations of each of the reagents are: Products 10 μM, Substrate 20 μM, enzyme 5 ng/ml.
The percentages of inhibition for each of the products are calculated by using the points at 0 and 100% inhibition of each plate as references. The products showing significant inhibition are then retested over a concentration range from 50 to 0.5 μM to determine an IC50.
Take `N#CC(NC(=O)[C@@H]1CCCN(C(=O)OCc2ccccc2)N1C(=O)CCNC(=O)Cc1ccccc1)c1ccccc1` (stereo partly drawn) [Example 10, (phenylmethyl) (3S)-3-[[(cyanophenylmethyl)amino]carbonyl]-2-[1-oxo-3-[(phenylacetyl)amino]propyl]tetrahydro-1(2H)-pyridazinecarboxylate]: the IC50 lay within 1000 to 10000 nM.
For the compound “(phenylmethyl) (3S)-3-[[[cyano(3-phenoxyphenyl)methyl]amino]carbonyl]-2-[3-phenyl-1-oxopropyl]tetrahydro-1(2H)-pyridazine-carboxylate [Example 14]”, the concentration for half-maximal inhibition (IC50) was 1000 to 10000 nM.
With `N#CC(OC(=O)[C@@H]1CCCN(C(=O)OCc2ccccc2)N1C(=O)CCNC(=O)Cc1ccccc1)c1cccc(Oc2ccc(Br)cc2)c1` (stereo partly drawn) [Example 9, 1-(phenylmethyl)-3-[cyano-3-[(4-bromophenoxy)phenyl]-methyl] (3S)2-[1-oxo-3-[(phenylacetyl)amino]propyl]-tetrahydro-1,3(2H)-pyridazinedicarboxylate] the figure was 1000 to 10000 nM; with `N#CC(NC(=O)[C@@H]1CCCN(C(=O)OCc2ccccc2)N1C(=O)CCNC(=O)Cc1ccccc1)c1cccc(Oc2ccccc2)c1` (stereo partly drawn) [Example 4, (phenylmethyl) (3S)-2-[1-oxo-3-[(phenylacetyl)amino]propyl]-3-[[[cyano(3-phenoxy-phenyl)methyl]amino]carbonyl]tetrahydro-1(2H)pyridazine-carboxylate], 1000 to 10000 nM; with `N#CC(NC(=O)[C@@H]1CCCNN1C(=O)CCNC(=O)Cc1ccccc1)c1cccc(Oc2ccccc2)c1` (mixture of isomers) [Example 5, (3S)-2-[3-[(phenylacetyl)amino]-1-oxopropyl]-N-[cyano-(3-phenoxyphenyl)methyl]hexahydro-3-pyridazine-carboxamide], < 1000 nM.
Take `N#CNC(=O)[C@@H]1CCCNN1C(=O)CCNC(=O)Cc1ccccc1` [Example 13, (3S)-N-cyano-2-[1-oxo-3-[(phenylacetyl)amino]propyl]hexahydro-3-pyridazinecarb-oxamide]: the IC50 fell in the range of 1000 to 10000 nM.
Consider `N#CC(OC(=O)[C@@H]1CCCNN1C(=O)CCNC(=O)Cc1ccccc1)c1cccc(Oc2ccccc2)c1` (mixture of isomers) [Example 8, 3-[cyano(3-phenoxyphenyl)methyl] (3S)-2-[1-oxo-3-[(phenylacetyl)-amino]propyl]tetrahydro-1,3-(2H)-pyridazinecarboxylate], for which the IC50 is 1000 to 10000 nM.
Take `N#CCNC(=O)[C@@H]1CCCN(C(=O)OCc2ccccc2)N1C(=O)CCNC(=O)Cc1ccccc1` [Example 12]: the half-inhibitory concentration (IC50) fell in the range of 1000 to 10000 nM.
For the compound `N#CC(NC(=O)[C@@H]1CCCNN1C(=O)CCc1ccccc1)c1cccc(Oc2ccccc2)c1` (stereo partly drawn) [Example 15, (3S)-N-[cyano(3-phenoxyphenyl)methyl]-2-(1-oxo-3-phenylpropyl)hexa-hydro-3-pyridazinecarboxamide], the IC50 was < 1000 nM.
In the case of `N#CC(OC(=O)[C@@H]1CCCN(C(=O)OCc2ccccc2)N1C(=O)CCNC(=O)Cc1ccccc1)c1cccc(Oc2ccccc2)c1` (mixture of isomers) [Example 7, 1-(phenylmethyl)-3-[(R)-cyano(3-phenoxyphenyl)methyl](3S)-2-[1-oxo-3-[(phenylacetyl)amino]propyl]tetrahydro-1,3(2H)-pyridazinedicarboxylate], the IC50 is 1000 to 10000 nM.
With `N#CC(NC(=O)[C@@H]1CCCNN1C(=O)CCNC(=O)Cc1ccccc1)c1ccccc1` (stereo partly drawn) [Example 11, (3S)-N-(cyanophenyl-methyl)-2-[1-oxo-3-[(phenylacetyl)amino]propyl]hexa-hydro-3-pyridazinecarboxamide] the figure was 1000 to 10000 nM.

For orientation: IC50 means the point on the concentration scale where inhibition reaches its midpoint. A high value points to lower potency.
